In US20170333391A1, “METHOD FOR DELAYING THE ONSET OF PULMONARY FIBROSIS OR TREATING PULMONARY FIBROSIS” (EVERFRONT BIOTECH INC., priority 2016, published 2017):

Columns and labels:
α-SMA protein = α-SMA protein expression in NHLF, western blotting (3-1); type: cell-based, human
Protocol: Normal Human lung fibroblasts (NHLF) were seeded into 6 cm culture dishes at a density of 2×10^5 cells/dish, comprising a control group and six experimental groups (7 dishes in total). The cells were cultured until the next day, and then the mediums were removed. Each group was respectively treated under the following conditions to conduct follow-up experiments: • (1) Control group: cells were cultured in a FGM-2 medium containing 10% serum for 36 hours; • (2) Group i: cells were cultured in a FGM-2 medium containing 1% serum for 36 hours; • (3) Group ii: cells were firstly cultured in a FGM-2 medium containing 1% serum for 12 hours, and then compound (1) was added into the medium to provide a final concentration of 15 μg/ml; thereafter, the cells were cultured for another 24 hours; • (4) Group iii: cells were firstly cultured in a FGM-2 medium containing 1% serum for 12 hours, and then compound (1) was added into the medium to provide a final concentration of 25 μg/ml; thereafter, the cells were cultured for another 24 hours; • (5) Group iv: cells were cultured in a FGM-2 medium containing 1% serum and TGF-β1 (5 ng/ml) for 36 hours; • (6) Group v: cells were firstly cultured in a FGM-2 medium containing 1% serum and TGF-β1 (5 ng/ml) for 12 hours, and then compound (1) was added into the medium to provide a final concentration of 15 μg/ml; thereafter, the cells were cultured for another 24 hours; and • (7) Group vi: cells were firstly cultured in a FGM-2 medium containing 1% serum and TGF-β1 (5 ng/ml) for 12 hours, and then compound (1) was added into the medium to provide a final concentration of 25 μg/ml; thereafter, the cells were cultured for another 24 hours.
Thereafter, the proteins in the cells of each group were extracted, and the expressions of BMP-7 protein, TGF-β protein and α-SMA protein in the NHLF cells of each group were measured with western blotting, wherein the β-actin served as the internal control. The results of the control group served as the basis for calculating the relative expression levels of the other groups.

type I collagen = experiment: Type I collagen expression in transfected NHLF (pcDNA3.1 empty vector or pcDNA3.1-SOX2), western blotting (2-3); type: cell-based, human; settings: TGF-β1 5 ng/ml 12 h
Protocol: The pcDNA3.1 empty vector and the pcDNA3.1-SOX2 plasmid (i.e., pcDNA3.1 vector containing SOX2 gene) were respectively transfected into Normal Human lung fibroblasts (NHLF) by the Fugene HD cell transfection reagent. The cells were screened to obtain NHLFs containing the pcDNA3.1 empty vector or the pcDNA3.1-SOX2 plasmid.
NHLFs containing the pcDNA3.1 empty vector were then seeded into 6 cm culture dishes at a density of 2×10^5 cells/dish, comprising a control group and three experimental groups (4 dishes in total). The cells were cultured until the next day, and then the mediums were removed. Each group was respectively treated under the following conditions to conduct follow-up experiments: • (1) Control group I: cells were cultured in a FGM-2 medium containing 1% serum for 36 hours; • (2) Group A: cells were cultured in a FGM-2 medium containing 1% serum and TGF-β1 (5 ng/ml) for 36 hours; • (3) Group B: cells were firstly cultured in a FGM-2 medium containing 1% serum and TGF-β1 (5 ng/ml) for 12 hours, and then compound (1) was added into the medium to provide a final concentration of 15 μg/ml; thereafter, the cells were cultured for another 24 hours; and • (4) Group C: cells were firstly cultured in a FGM-2 medium containing 1% serum and TGF-β1 (5 ng/ml) for 12 hours, and then compound (1) was added into the medium to provide a final concentration of 30 μg/ml; thereafter, the cells were cultured for another 24 hours.
In another aspect, NHLFs containing the pcDNA3.1-SOX2 plasmid were seeded into the 6 cm culture dishes at a density of 2×10^5 cells/dish, comprising a control group and three experimental groups (4 dishes in total). The cells were cultured until the next day, and then the mediums were removed. Each group was respectively treated under the following conditions to conduct follow-up experiments: • (1) Control group II: cells were cultured in a FGM-2 medium containing 1% serum for 36 hours; • (2) Group D: cells were cultured in a FGM-2 medium containing 1% serum and TGF-β1 (5 ng/ml) for 36 hours; • (3) Group E: cells were firstly cultured in a FGM-2 medium containing 1% serum and TGF-β1 (5 ng/ml) for 12 hours, and then the compound (1) was added into the medium to provide a final concentration of 15 μg/ml; thereafter, the cells were cultured for another 24 hours; and • (4) Group F: cells were firstly cultured in a FGM-2 medium containing 1% serum and TGF-β1 (5 ng/ml) for 12 hours, and then the compound (1) was added into the medium to provide a final concentration of 30 μg/ml; thereafter, the cells were cultured for another 24 hours.
Thereafter, the proteins in the cells of each group were extracted, and the expressions of Sox2 protein, TGF-β protein and type I collagen in the NHLF cells of each group were measured with western blotting. […]

Q: What does the source list for CCCC=C1OC(=O)c2ccccc21 [compound (1)]?
A: Relative expression level (fold) α-SMA protein (α-SMA protein; Group ii: 1% serum 12 h, then compound (1) 15 μg/ml 24 h, no TGF-β1, 10% serum control = 1, 1% serum group i = 0.94): 0.95 fold; Relative expression level (fold) α-SMA protein (α-SMA protein; Group iii: 1% serum 12 h, then compound (1) 25 μg/ml 24 h, no TGF-β1, 10% serum control = 1, 1% serum group i = 0.94): 0.89 fold; Relative expression level (fold) α-SMA protein (α-SMA protein; Group v: 1% serum + TGF-β1 5 ng/ml 12 h, then compound (1) 15 μg/ml 24 h, 10% serum control = 1, TGF-β1-only group iv = 0.89): 0.72 fold; Relative expression level (fold) α-SMA protein (α-SMA protein; Group vi: 1% serum + TGF-β1 5 ng/ml 12 h, then compound (1) 25 μg/ml 24 h, 10% serum control = 1, TGF-β1-only group iv = 0.89): 0.77 fold; Relative expression level (fold) Type I collagen (type I collagen; Group B: NHLF with pcDNA3.1 empty vector, then compound (1) 15 μg/ml 24 h, control group I = 1, TGF-β1-only group A = 5.83): 3.74 fold; Relative expression level (fold) Type I collagen (type I collagen; Group C: NHLF with pcDNA3.1 empty vector, then compound (1) 30 μg/ml 24 h, control group I = 1, TGF-β1-only group A = 5.83): 0.88 fold; Relative expression level (fold) Type I collagen (type I collagen; Group E: NHLF with pcDNA3.1-SOX2 plasmid, then compound (1) 15 μg/ml 24 h, control group II = 1, TGF-β1-only group D = 1.57): 1.30 fold; Relative expression level (fold) Type I collagen (type I collagen; Group F: NHLF with pcDNA3.1-SOX2 plasmid, then compound (1) 30 μg/ml 24 h, control group II = 1, TGF-β1-only group D = 1.57): 1.29 fold
